Results: US12390626B2, “Method of producing substances with supersaturated gas, transdermal delivery device thereof, and uses thereof” (Circularity Healthcare, LLC, priority 2012, dated 2025)
Several values for one entry are separate records, joined by “and”; a condition that tells them apart may be missing. Equal entries are not always repeated.

What was measured:
[1] = system: individuals; assay: Measurement of blood pressure: brachial diastolic and systolic, right upper arm, after transdermal CO2 vapor treatment; format: in vivo, human; parameters: Brachial Systolic / Brachial Diastolic: unit not given here; conditions: for Brachial Diastolic Percent / Brachial Systolic Percent: percent of pre-treatment; for Brachial Diastolic Percent / Brachial Systolic Percent / Brachial Diastolic / Brachial Systolic: per patient
Description: (§1) The treatment was administered by having an individual insert the left thumb into the open-ended delivery outlet of a device disclosed herein creating a seal. The digit will be “bathed” for five minutes with a vapor including supersaturated dissolved molecular carbon dioxide from a canister providing pure, medical-grade carbon dioxide. Nine individuals were examined.
To conduct this study, individuals from the study described in Example 1 had there blood pressure taken. A measurement of both brachial diastolic blood pressure and systolic blood pressure was performed on the individual's right upper arm at six time points 1) 5 minutes before treatment (pre-treatment); 2) 5 minutes post-treatment; 3) 30 minutes post-treatment; 4) 60 minutes post-treatment; 5) 120 minutes post-treatment; and 6) 240 minutes post-treatment.

[2] = system: individuals; assay: Measurement of blood flow: Skin Perfusion Pressure (SensiLase System, laser Doppler) on right toe after transdermal CO2 vapor treatment of left thumb; format: in vivo, human; conditions: for SPP: right toe
Description: as §1
Tissue perfusion in distal arteries was accessed using a SensiLase System (a FDA-cleared device) and measuring Skin Perfusion Pressure (SPP) and Pulse Volume Recording (PVR). SPP is a pressure measurement in mmHg that assess local blood perfusion in capillaries using a laser Doppler to measure reactive hyperemia, which reflects microcirculation for distal arterial blood flow. PVR is a measurement of plethysmography to assess changes in arterial blood volume. A change in capillary blood flow (CBF) is calculated by determining the change in SPP values over time. For this study, the CBF values of all post-treatment measurements were calculated by dividing the post-treatment SPP value by the pre-treatment SPP value. A measurement of SPP was performed on the individual's right toe at six time points 1) 5 minutes before treatment (pre-treatment); 2) 5 minutes post-treatment; 3) 30 minutes post-treatment; 4) 60 minutes post-treatment; 5) 120 minutes post-treatment; and 6) 240 minutes post-treatment.

[3] = Post Treatment (5 min), right upper arm
[4] = nine individuals, 5-240 min post-treatment
[5] = seven of the nine individuals studied

## O=C=O [molecular carbon dioxide, carbon dioxide]
[1]; Post Treatment (5 min)
  Brachial Diastolic Percent: 98% and 100% and 77% (2×) and 113% and 80% (2×) and 89% and 111%
  Brachial Systolic Percent: 92% (2×) and 94% (2×) and 95% and 79% and 98% and 73% and 80%
[1]; [3]
  Brachial Diastolic: 78 and 68 (3×) and 60 (2×) and 72 (2×) and 80
  Brachial Systolic: 110 (2×) and 132 and 104 and 98 and 124 and 101 and 112 (2×)
[1]; Post Treatment (30 min)
  Brachial Diastolic: 70 (3×) and 58 and 62 and 78 and 80 and 52
  Brachial Systolic: 110 and 98 and 100 and 112 (2×) and 118 (3×)
  Brachial Diastolic Percent: 88% and 73% and 103% and 87% (2×) and 100% and 67% and 92%
  Brachial Systolic Percent: 92% and 89% and 96% and 80% and 94% and 81% and 84% and 97%
[1]; Post Treatment (60 min)
  Brachial Diastolic: 82 and 70 and 78 (2×) and 60 and 68 and 50 and 72 and 62
  Brachial Systolic: 138 and 118 (2×) and 115 and 150 and 106 and 110 (2×) and 128
  Brachial Diastolic Percent: 108% and 97% and 98% and 88% and 87% (2×) and 83% and 90% and 79%
  Brachial Systolic Percent: 99% and 97% and 96% (2×) and 107% and 106% and 79% and 102% and 86%
[1]; Post Treatment (120 min)
  Brachial Diastolic: 68 (2×) and 70 (2×) and 60 and 49 and 62 and 65 and 69
  Brachial Systolic: 120 and 128 and 90 and 127 and 102 and 110 and 111 and 116 and 118
  Brachial Diastolic Percent: 89% and 97% and 75% and 72% (2×) and 79% and 117% and 86% and 87%
  Brachial Systolic Percent: 86% (2×) and 105% and 75% and 91% and 93% and 106% and 79% and 92%
[1]; Post Treatment (240 min)
  Brachial Diastolic: 70 and 64 and 59 and 80 and 68 and 58 and 62 and 71 and 69
  Brachial Systolic: 118 (2×) and 108 (2×) and 113 and 140 and 112 (2×) and 117
  Brachial Diastolic Percent: 92% and 89% (2×) and 74% and 118% and 87% and 97% and 69% and 88%
  Brachial Systolic Percent: 84% and 89% and 94% (2×) and 100% and 102% and 104% and 80% and 85%
[1]; [4]
  effect on blood pressure: decreased blood pressure in all individuals examined at some point during the time period measured
[1]; [5]
  duration of decrease in diastolic and systolic blood pressure: decreased diastolic and systolic blood pressure over the course of the entire 240 minute study
[2]; Post Treatment (5 min), post-treatment SPP / pre-treatment SPP, per patient
  CBF: 124% and 104% and 102% and 87% and 117% and 122% and 109% and 113% and 114%
[2]; Post Treatment (5 min), one value per patient (1-9), 5 min vapor on left thumb
  SPP: 52 mmHg and 85 mmHg and 84 mmHg and 60 mmHg and 75 mmHg and 89 mmHg and 116 mmHg and 71 mmHg and 132 mmHg
[2]; Post Treatment (30 min), post/pre-treatment SPP, per patient
  CBF: 124% and 112% and 109% and 91% and 119% and 92% and 106% and 114%
[2]; Post Treatment (30 min), per patient
  SPP: 54 mmHg and 0 mmHg and 92 mmHg and 75 mmHg and 58 mmHg and 87 mmHg and 97 mmHg and 67 mmHg and 142 mmHg
[2]; Post Treatment (60 min), post/pre-treatment SPP, per patient
  CBF: 124% (2×) and 102% and 104% and 112% and 84% and 103% and 114% and 134%
[2]; Post Treatment (60 min), per patient
  SPP: 54 mmHg (2×) and 84 mmHg and 85 mmHg and 77 mmHg and 75 mmHg and 131 mmHg and 72 mmHg and 156 mmHg
[2]; Post Treatment (120 min), post/pre-treatment SPP, per patient
  CBF: 138% and 135% and 109% and 112% and 125% and 129% and 82% and 106% and 119%
[2]; Post Treatment (120 min), per patient
  SPP: 58 mmHg and 111 mmHg and 89 mmHg and 77 mmHg and 80 mmHg and 94 mmHg and 87 mmHg and 67 mmHg and 138 mmHg
[2]; Post Treatment (240 min), post/pre-treatment SPP, per patient
  CBF: 110% and 120% and 135% and 46% and 95% and 104% and 82% and 103% and 115%
[2]; Post Treatment (240 min), per patient
  SPP: 46 mmHg and 98 mmHg and 111 mmHg and 32 mmHg and 61 mmHg and 76 mmHg and 91 mmHg and 65 mmHg and 133 mmHg
[2]; four of these (of the seven of nine individuals)
  increase in capillary blood flow: ≥ 35%
[2]; [4]
  effect on blood flow: increases blood flow in all individuals examined at some point during the time period measured
[2]; [5]
  increase in capillary blood flow over baseline: about 25%
[2]; six of the nine patients
  duration of increase in capillary blood flow: sustained increases in capillary blood flow over the course of the entire 240 minute study
